According to PubChem BioAssay (NCI):
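Test compounds were applied to cells in 96-well plates for 48 hours at 5 doses. TGI is the concentration that stops growth completely.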

What was measured:
Assay in all cases: growth of human tumour cells (NCI), 48 h
HL-60(TB) leukemia = tested on: HL-60(TB) leukemia
OVCAR-5 ovarian = tested on: OVCAR-5 ovarian
OVCAR-3 ovarian = tested on: OVCAR-3 ovarian
NCI-H23 lung = tested on: NCI-H23 lung
SK-MEL-2 melanoma = tested on: SK-MEL-2 melanoma
SN12C renal = tested on: SN12C renal
UACC-62 melanoma = tested on: UACC-62 melanoma
MOLT-4 leukemia = tested on: MOLT-4 leukemia
BT-549 breast = tested on: BT-549 breast
PC-3 prostate = tested on: PC-3 prostate
NCI-H460 lung = tested on: NCI-H460 lung
DU-145 prostate = tested on: DU-145 prostate
U251 CNS = tested on: U251 CNS
HCT-116 colon = tested on: HCT-116 colon
SNB-19 CNS = tested on: SNB-19 CNS
MDA-MB-435 = tested on: MDA-MB-435
COLO 205 colon = tested on: COLO 205 colon
A498 renal = tested on: A498 renal
OVCAR-4 ovarian = tested on: OVCAR-4 ovarian
SR leukemia = tested on: SR leukemia
ACHN renal = tested on: ACHN renal
HCT-15 colon = tested on: HCT-15 colon
OVCAR-8 ovarian = tested on: OVCAR-8 ovarian
A549 NSCLC = tested on: A549 NSCLC
HCC-2998 colon = tested on: HCC-2998 colon
HOP-62 NSCLC = tested on: HOP-62 NSCLC
UACC-257 melanoma = tested on: UACC-257 melanoma
HS 578T breast = tested on: HS 578T breast
IGROV1 ovarian = tested on: IGROV1 ovarian
KM12 colon = tested on: KM12 colon
SK-MEL-28 melanoma = tested on: SK-MEL-28 melanoma
HOP-92 NSCLC = tested on: HOP-92 NSCLC
NCI/ADR-RES ovarian = tested on: NCI/ADR-RES ovarian
MDA-N = tested on: MDA-N
MDA-MB-231 breast = tested on: MDA-MB-231 breast
HT29 colon = tested on: HT29 colon
RPMI-8226 leukemia = tested on: RPMI-8226 leukemia
T-47D breast = tested on: T-47D breast
K-562 leukemia = tested on: K-562 leukemia
SF-539 CNS = tested on: SF-539 CNS
LOX IMVI melanoma = tested on: LOX IMVI melanoma
UO-31 renal = tested on: UO-31 renal
CAKI-1 renal = tested on: CAKI-1 renal
SF-268 CNS = tested on: SF-268 CNS
NCI-H226 lung = tested on: NCI-H226 lung
TK-10 renal = tested on: TK-10 renal
M14 melanoma = tested on: M14 melanoma

CC(C)C[C@@H](NC(=O)[C@@H](Cc1cccc2ccccc12)NC(=O)N1CCOCC1)B(O)O showed a TGI (HL-60(TB) leukemia) greater than 100 µM, a TGI (OVCAR-5 ovarian) greater than 100 µM and a TGI (OVCAR-3 ovarian) of 85.8 µM. For the same compound, the TGI (NCI-H23 lung) was greater than 100 µM, the TGI (SK-MEL-2 melanoma) was greater than 100 µM and the TGI (SN12C renal) was greater than 100 µM. For the same compound, the TGI (UACC-62 melanoma) was greater than 100 µM, the TGI (MOLT-4 leukemia) was 96.5 µM and the TGI (BT-549 breast) was greater than 100 µM. The TGI (PC-3 prostate) was greater than 100 µM, the TGI (NCI-H460 lung) was greater than 100 µM and the TGI (DU-145 prostate) was greater than 100 µM. For the same compound, the TGI (U251 CNS) was greater than 100 µM, the TGI (HCT-116 colon) was greater than 100 µM and the TGI (SNB-19 CNS) was greater than 100 µM. For the same compound, the TGI (MDA-MB-435) was 42.9 µM, the TGI (COLO 205 colon) was greater than 100 µM and the TGI (A498 renal) was 93.8 µM. The TGI (OVCAR-4 ovarian) was greater than 100 µM, the TGI (SR leukemia) was greater than 100 µM and the TGI (ACHN renal) was greater than 100 µM. For the same compound, the TGI (HCT-15 colon) was greater than 100 µM, the TGI (OVCAR-8 ovarian) was greater than 100 µM and the TGI (A549 NSCLC) was greater than 100 µM. The TGI (HCC-2998 colon) was greater than 100 µM, the TGI (HOP-62 NSCLC) was greater than 100 µM and the TGI (UACC-257 melanoma) was greater than 100 µM. For the same compound, the TGI (HS 578T breast) was greater than 100 µM, the TGI (IGROV1 ovarian) was greater than 100 µM and the TGI (KM12 colon) was greater than 100 µM. It also gave a TGI (SK-MEL-28 melanoma) of 64.1 µM, a TGI (HOP-92 NSCLC) greater than 100 µM and a TGI (NCI/ADR-RES ovarian) greater than 100 µM. It also gave a TGI (MDA-N) of 41.8 µM, a TGI (MDA-MB-231 breast) greater than 100 µM and a TGI (HT29 colon) greater than 100 µM. The TGI (RPMI-8226 leukemia) was greater than 100 µM, the TGI (T-47D breast) was greater than 100 µM and the TGI (K-562 leukemia) was greater than 100 µM. For the same compound, the TGI (SF-539 CNS) was greater than 100 µM, the TGI (LOX IMVI melanoma) was greater than 100 µM and the TGI (UO-31 renal) was greater than 100 µM. It also gave a TGI (CAKI-1 renal) greater than 100 µM, a TGI (SF-268 CNS) greater than 100 µM and a TGI (NCI-H226 lung) of 36.8 µM. It also gave a TGI (TK-10 renal) of 90.7 µM and a TGI (M14 melanoma) of 78.7 µM.
